ChEMBL document CHEMBL2073836, “Interactions of nonsteroidal anti-inflammatory drugs with rat renal organic anion transporter, OAT-K1” (J Pharmacol Exp Ther, 1997)

Experiments:
Type in all cases: functional, cell-based
[1] = target: T1, Solute carrier organic anion transporter family member 1A3 (Rattus norvegicus, UniProt P70502); test: TP_TRANSPORTER: inhibition of MTX uptake (MTX: 0.1 uM, Flufenamate: 1000 uM) in OAT-K1-expressing LLC-PK1 cells; conditions: pig, llc-pk1, 1000 µM
T1 sequence (P70502 whole entry): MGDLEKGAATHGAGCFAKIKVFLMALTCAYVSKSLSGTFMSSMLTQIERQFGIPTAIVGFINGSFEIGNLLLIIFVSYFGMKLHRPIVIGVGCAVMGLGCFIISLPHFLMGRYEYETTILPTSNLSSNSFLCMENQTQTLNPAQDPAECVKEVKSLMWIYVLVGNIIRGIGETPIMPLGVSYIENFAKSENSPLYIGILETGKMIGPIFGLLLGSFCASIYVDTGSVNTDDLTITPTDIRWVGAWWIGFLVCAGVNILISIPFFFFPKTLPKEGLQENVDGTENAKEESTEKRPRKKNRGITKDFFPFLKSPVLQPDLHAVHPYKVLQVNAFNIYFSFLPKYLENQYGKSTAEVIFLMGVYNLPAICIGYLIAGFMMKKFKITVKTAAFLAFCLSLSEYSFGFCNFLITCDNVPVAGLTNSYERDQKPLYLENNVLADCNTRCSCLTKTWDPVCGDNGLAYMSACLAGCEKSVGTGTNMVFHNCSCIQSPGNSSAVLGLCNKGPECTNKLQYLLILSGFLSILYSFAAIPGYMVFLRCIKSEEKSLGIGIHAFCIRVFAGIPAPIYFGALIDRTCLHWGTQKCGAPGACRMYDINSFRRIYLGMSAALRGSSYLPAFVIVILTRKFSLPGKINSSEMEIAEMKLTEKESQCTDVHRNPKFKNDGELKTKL

[2] = target: T1, Solute carrier organic anion transporter family member 1A3; test: TP_TRANSPORTER: inhibition of MTX uptake (MTX: 0.1 uM, Ibuprofen: 1000 uM) in OAT-K1-expressing LLC-PK1 cells; conditions: pig, llc-pk1, 1000 µM
[3] = target: T1, Solute carrier organic anion transporter family member 1A3; test: TP_TRANSPORTER: inhibition of MTX uptake in OAT-K1-expressing LLC-PK1 cells
[4] = target: T1, Solute carrier organic anion transporter family member 1A3; test: TP_TRANSPORTER: inhibition of MTX uptake (MTX: 0.1 uM, Phenylbutazone: 1000 uM) in OAT-K1-expressing LLC-PK1 cells; conditions: pig, llc-pk1, 1000 µM

How did the Activity [1] turn out when O=C(O)c1ccccc1Nc1cccc(C(F)(F)F)c1 [FLUFENAMIC ACID] was run?
Its Activity is “inhibitor [(at a rough estimate) 55 % of control]”.

Which Activity [2] does the source give for CC(C)Cc1ccc(C(C)C(=O)O)cc1 (stereo not given) [IBUPROFEN] here?
The Activity was “inhibitor [(at a rough estimate) 65 % of control]”.

Which Ki [3] does the source give for COc1ccc2c(c1)c(CC(=O)O)c(C)n2C(=O)c1ccc(Cl)cc1 [INDOMETHACIN] here?
Its Ki is 1 mM.

Which Ki [3] does the source give for CC(C(=O)O)c1cccc(C(=O)c2ccccc2)c1 (stereo not given) [KETOPROFEN] here?
Its Ki is 1.9 mM.

With CCCCC1C(=O)N(c2ccccc2)N(c2ccccc2)C1=O [PHENYLBUTAZONE] as the compound, how does the Activity [4] read?
Its Activity is “inhibitor [(at a rough estimate) 70 % of control]”.
